Experimental data reported in US5616570A, “Use of non-absorbable synthetic sulfated polysaccharides to decrease cholesterol absorbtion” (priority 1994, dated 1997).
Where two headings read alike, the source gives them in different places. One block for each compound: values may come before it.

Columns and labels:
[1] = biological target: T1, Human pancreatic cholesterol esterase (Homo sapiens, UniProt P19835); test: Inhibition of human pancreatic cholesterol esterase, cholesteryl 14C-oleate hydrolysis; format: biochemical
T1 construct: Human pancreatic cholesterol esterase was purified as described by Bosner et al; from tissue; host or cells: human pancreas (purified to homogeneity)
T1 sequence (P19835 21-753): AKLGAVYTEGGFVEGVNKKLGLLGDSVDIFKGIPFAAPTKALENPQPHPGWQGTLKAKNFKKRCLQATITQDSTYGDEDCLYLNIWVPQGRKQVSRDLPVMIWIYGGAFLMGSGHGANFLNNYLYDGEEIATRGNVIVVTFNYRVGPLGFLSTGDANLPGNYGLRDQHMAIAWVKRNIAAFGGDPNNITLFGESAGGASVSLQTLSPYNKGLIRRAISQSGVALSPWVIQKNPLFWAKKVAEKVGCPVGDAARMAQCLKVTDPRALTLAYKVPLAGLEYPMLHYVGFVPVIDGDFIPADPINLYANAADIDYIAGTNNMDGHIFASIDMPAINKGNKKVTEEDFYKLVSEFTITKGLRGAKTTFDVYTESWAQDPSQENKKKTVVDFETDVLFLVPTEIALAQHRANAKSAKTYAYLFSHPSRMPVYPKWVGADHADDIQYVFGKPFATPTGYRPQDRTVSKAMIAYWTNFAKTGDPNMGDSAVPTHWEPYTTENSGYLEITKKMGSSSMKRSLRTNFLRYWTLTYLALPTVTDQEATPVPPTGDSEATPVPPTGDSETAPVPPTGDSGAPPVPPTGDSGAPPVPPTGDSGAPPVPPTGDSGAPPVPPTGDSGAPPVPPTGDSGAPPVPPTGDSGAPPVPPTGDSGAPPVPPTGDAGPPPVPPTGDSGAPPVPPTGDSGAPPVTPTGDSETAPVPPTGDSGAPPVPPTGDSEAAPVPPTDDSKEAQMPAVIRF

[2] = biological target: human 100 kDa cholesterol esterase; test: Inhibition of triolein hydrolysis by human 100 kDa cholesterol esterase; format: biochemical; conditions: Table 3; triolein as substrate
Experimental: Alginic acid from Macrocystis pyrifera (kelp) was dissolved in water at a concentration of 1 mg/ml. This stock solution was used to prepare various polysaccharide concentrations down to 10^-5 mg/ml. Human pancreatic cholesterol esterase was purified as described by Bosner et al., Proc. Nat'l, Acad, Sci., 85, 7438 (1988). To measure cholesterol esterase inhibition by alginic acid, 50 μl of cholesterol esterase (10 μg/ml), 75 μl of phosphatidylcholine vesicles containing cholesteryl ^14 C-oleate (1 mM 2,000 CPM/nmole), 25 μl of 100 mM taurocholate, 120 μl of 150 mM Tris, pH 7.5 and 30 μl of test alginic acid solution were incubated at 37° C. for fifteen minutes. The assay was quenched by placing the reaction vessels in a 4° C. ice bath and by adding 0.6 ml of 0.3 N NaOH and 3 ml of benzene/chloroform/methanol (1.0/1.2/0.5). The quenched reactions were vortexed for 30 seconds, centrifuged at 3,000 g for 15 minutes and 1 ml of the upper aqueous phase was added to 7 ml of Aquasol-2 (DuPont) with 0.025 ml of 6 N HCl. These mixtures were vortexed for one minute and counted for ^14 C-oleate. The counts were compared to a sample which contained cholesterol esterase but no alginic acid to determine the percentage of inhibition.
(The same assay procedure was used as described in Part I, only triolein was used instead of cholesteryl oleate.) As shown in the table below, the IC50 for inhibition of triolein hydrolysis is nearly the same as that for cholesteryl oleate hydrolysis.

[3] = biological target: cholesterol esterase; test: Inhibition of cholesterol oleate hydrolysis by cow pancreatic cholesterol esterase; format: biochemical; conditions: enzyme from the cow
Text: (§1) These sulfated polysaccharides are also inhibitors of animal pancreatic cholesterol esterase.

[4] = tested on: cholesterol esterase; test: Inhibition of cholesterol oleate hydrolysis by pig pancreatic cholesterol esterase; format: biochemical; conditions: enzyme from pig pancreas
Text: as §1

[5] = tested on: cholesterol esterase; test: Inhibition of cholesterol oleate hydrolysis by rat pancreatic cholesterol esterase; format: biochemical; conditions: enzyme from rat pancreas
Text: as §1

[6] = tested on: cholesterol esterase; test: Inhibition of cholesterol oleate hydrolysis by rabbit pancreatic cholesterol esterase; format: biochemical; conditions: enzyme from rabbit pancreas
Text: as §1

[7] = tested on: Colonic adenocarcinoma cells (CaCo-2); test: Cholesterol esterase catalyzed cholesterol uptake by CaCo-2 cells; format: cell-based; conditions: CaCo-2, bovine 72 kDa cholesterol esterase
Experimental: Colonic adenocarcinoma cells (CaCo-2, American Type Culture Collection) were grown to a density of 2×10^6 cells on […] coverslips in Dulbecco's Moditied Eagle's Medium containing 10% (v/v) lipoprotein depleted serum. The coverslips were washed with phosphate buffered saline (PBS) and transferred to 35 mm wells containing 1.0 ml PBS, 2 mM taurocholate and 1% bovine serum albumin. The cells were then incubated at 37° C. with 0.01 uCi of ^3 H cholesterol and 0.01 uCi of ^14 C-cholesteryl oleate, which were embedded in phosphatidylcholine vesicles. The control wells received no cholesterol esterase while the experimental set received bovine 72 kDa cholesterol esterase. At various incubation times the coverslips were removed, washed three times with PBS, and the cells were collected by scraping and washing with 250 mM tris glycine buffer (pH 8.8) containing 0.1% SDS. The cells were collected by centrifugation and the pellet was heated at 100° C. for five minutes and then sonicated for ten minutes. The uptake of cholesterol, either from free sterol or from cholesteryl oleate, was determined by scintillation counting for ^3 H or ^14 C, respectively.

[8] = In vivo cholesterol uptake in cholesteryl oleate fed rabbit, nasogastric dosing
Experimental: Inhibition of cholesterol uptake from either free cholesterol or from cholesteryl oleate was examined in vivo using cellulose sulfate. A rabbit which had been fed cholesteryl oleate for six weeks was fasted for twelve hours and a nasogastric cube was inserted into its stomach. Five ml of a cellulose sulfate solution (100 mg/ml) in Tris buffer were added followed by 10 ml of 20 uCi of ^3 H cholesterol incorporated in phosphatidylcholine vesicles and 10 ml of 20 uCi of ^14 C cholesteryl oleate. The nasogastric tube was then flushed with an additional 5 ml of cellulose sulfate solution (100 mg/ml). After the tube was removed, blood was drawn from an ear vein as a function of time and 100 μl of plasma was counted for ^14 C and ^3 H. As shown, cellulose sulfate inhibited by 85% the uptake of either free cholesterol or cholesterol derived from cholesteryl oleate (FIG. 5).

[9] = Serum radiolabeled cholesterol in rabbit fed cellulose sulfate chow; format: in vivo, New Zealand White rabbit; conditions: chow with 0.5% cellulose sulfate
Text: A New Zealand White rabbit was maintained on regular rabbit chow. Two days before the experiment began the animal was fed chow to which cellulose sulfate had been added to give a final concentration of 0.5%. After 12 hrs. on regular chow then, the experiment began with the administration of ^14 C-cholesteryl oleate as described above. The animal was then allowed to eat and drink regular chow in a normal manner. Blood samples were withdrawn from an ear vein and the radiolabeled cholesterol measured by scintillation counting. […] In contrast, in the control animal, label appears only two hours after its administration.

[10] = tested on: cholesterol esterase; test: Stability under baking conditions: cholesterol esterase inhibition by muffin supernatant; conditions: retention of inhibitory activity
Experimental: The sulfated polysaccharides described here retain their inhibitory activity for prolonged periods at elevated temperatures. […] For example, 109 mg of cellulose sulfate were added to 198 gm (7 oz) of corn muffin mix (Gold Medal,) and the solid ingredients were thoroughly mixed together. After the addition of one egg and one third cup milk, the muffin mix was stirred fifteen times. The mixture was poured into nine muffin tins and baked for fifteen minutes in a 400° oven. The next day one muffin was broken up, added to 100 ml of water and allowed to stand for fifteen minutes. The mixture was centrifuged and the clear supernatant was assayed for the presence of cholesterol esterase inhibition. The IC50 of this solution was achieved when this solution was diluted 10^3 -10^4 times.

[11] = biological target: 52 kDa human pancreatic triglyceride lipage; conditions: literature; cited from earlier work
[12] = biological target: cholesterol esterase from rat; conditions: Borgstrom 1988; water soluble artificial and colorimetric substrates; cited from earlier work
[13] = tested on: cholesterol esterase; conditions: Bosner et al., 1988; cited from earlier work
[14] = Table 3, cholesteryl oleate as substrate, read-out: IC50 (nM) Cholesteryl Oleate
[15] = cholesteryl oleate hydrolysis, molar value based on assumed polymer molecular weight, read-out: IC50

Compound: Cellulose Sulfate
IC50 ([1]; Table 2, read-out: IC50): 0.02 nM
IC50 [1, 14]: 0.02 nM
IC50 [1, 15]: 0.02 nM
IC50 [2]: 0.06 nM
Ki [3]: 100 nM
inhibition of cholesterol oleate hydrolysis [4]: inhibits
inhibition of cholesterol oleate hydrolysis [5]: inhibits
inhibition of cholesterol oleate hydrolysis [6]: inhibits
uptake of cholesterol derived from cholesteryl oleate by the cells ([7]; FIG. 4a): markedly inhibits cholesterol uptake
uptake of free cholesterol by the cells ([7]; FIG. 4b): markedly inhibits cholesterol uptake
inhibition of uptake of free cholesterol ([8]; rabbit, nasogastric cellulose sulfate 100 mg/ml, 3H cholesterol in plasma, FIG. 5): 85%
inhibition of uptake of cholesterol derived from cholesteryl oleate ([8]; rabbit, nasogastric cellulose sulfate 100 mg/ml, 14C in plasma, FIG. 5): 85%
absorption of free cholesterol ([8]; rabbits): decreases absorption of free cholesterol
decrease of cholesterol absorption ([8]; rabbits fed cholesterol oleate): over 70%
time until cholesterol appears in serum after administration of the label [9]: four
reduction of level of serum cholesterol compared to control rabbit ([9]; 14C-cholesteryl oleate label, FIG. 7): 50%
stability at elevated temperatures / baking conditions [10]: stable under baking conditions

Compound: CCCCCCCCCCC[C@@H](C[C@@H]1OC(=O)[C@H]1CCCCCC)OC(=O)[C@H](CC(C)C)NC=O [tetrahydrolipstatin]
Ki [11]: 100 nM
Ki [12]: 100000 nM

Compound: chondroitan sulfate
interaction with cholesterol esterase [13]: does not interact with cholesterol esterase

Compound: pectin [native, unsulfated pectin, reference compound]
inhibition of cholesterol esterase (in words) ([1]; hydrolysis of cholesterol esters): does not inhibit cholesterol esterase

Now from value to compound:

IC50 ([1]; Table 1, read-out: IC50): 20 nM
Enhancement Factor ([1]; Table 1, relative to alginic acid): 1.0
IC50 [1, 14]: 20 nM
IC50 ([1]; cholesteryl oleate hydrolysis): 4 µg/mL
IC50 [1, 15]: 20 nM
IC50 [2]: 42 nM
Compound: Alginic acid [reference compound]

IC50 ([1]; Table 2, read-out: IC50): 0.16 nM
IC50 [1, 14]: 0.3 nM
IC50 [1, 15]: 0.3 nM
IC50 [2]: 0.35 nM
Compound: Chitin Sulfate

IC50 ([1]; Table 2, read-out: IC50): 0.16 nM
IC50 [1, 14]: 0.3 nM
IC50 [1, 15]: 0.3 nM
IC50 [2]: 0.85 nM
Compound: Chitosan Sulfate
